Measurements published in patent US20200181132A1, “QUINOXALINE AND PYRIDOPYRAZINE DERIVATIVES AS PI3K-BETA INHIBITORS” (JANSSEN PHARMACEUTICA NV, priority 2017, published 2020).
Where two headings read alike, the source gives them in different places.

What was measured:
PIK3Cγ_h = molecular target: T1, PIK3Cγ_h (Homo sapiens, UniProt P48736); experiment: Enzyme binding assay (KINOMEscan), PIK3Cγ; details: DiscoveRx
T1 construct: purchased DiscoveRx Corporation
Description: (§1) Enzyme Binding Assays (KINOMEscan®)
(§2) Kinase enzyme binding affinities of compounds disclosed herein were determined using the KINOMEscan technology performed by DiscoveRx Corporation, San Diego, Calif., USA (www.kinomescan.com). Table A reports the obtained Kd values (nM), with the Kd being the inhibitor binding constant: […]

PIK3Cβ_h = molecular target: T2, PIK3Cβ_h (Homo sapiens, UniProt P42338); experiment: Enzyme binding assay (KINOMEscan), PIK3Cβ; details: DiscoveRx
T2 construct: purchased DiscoveRx Corporation
T2 sequence (P42338 whole entry): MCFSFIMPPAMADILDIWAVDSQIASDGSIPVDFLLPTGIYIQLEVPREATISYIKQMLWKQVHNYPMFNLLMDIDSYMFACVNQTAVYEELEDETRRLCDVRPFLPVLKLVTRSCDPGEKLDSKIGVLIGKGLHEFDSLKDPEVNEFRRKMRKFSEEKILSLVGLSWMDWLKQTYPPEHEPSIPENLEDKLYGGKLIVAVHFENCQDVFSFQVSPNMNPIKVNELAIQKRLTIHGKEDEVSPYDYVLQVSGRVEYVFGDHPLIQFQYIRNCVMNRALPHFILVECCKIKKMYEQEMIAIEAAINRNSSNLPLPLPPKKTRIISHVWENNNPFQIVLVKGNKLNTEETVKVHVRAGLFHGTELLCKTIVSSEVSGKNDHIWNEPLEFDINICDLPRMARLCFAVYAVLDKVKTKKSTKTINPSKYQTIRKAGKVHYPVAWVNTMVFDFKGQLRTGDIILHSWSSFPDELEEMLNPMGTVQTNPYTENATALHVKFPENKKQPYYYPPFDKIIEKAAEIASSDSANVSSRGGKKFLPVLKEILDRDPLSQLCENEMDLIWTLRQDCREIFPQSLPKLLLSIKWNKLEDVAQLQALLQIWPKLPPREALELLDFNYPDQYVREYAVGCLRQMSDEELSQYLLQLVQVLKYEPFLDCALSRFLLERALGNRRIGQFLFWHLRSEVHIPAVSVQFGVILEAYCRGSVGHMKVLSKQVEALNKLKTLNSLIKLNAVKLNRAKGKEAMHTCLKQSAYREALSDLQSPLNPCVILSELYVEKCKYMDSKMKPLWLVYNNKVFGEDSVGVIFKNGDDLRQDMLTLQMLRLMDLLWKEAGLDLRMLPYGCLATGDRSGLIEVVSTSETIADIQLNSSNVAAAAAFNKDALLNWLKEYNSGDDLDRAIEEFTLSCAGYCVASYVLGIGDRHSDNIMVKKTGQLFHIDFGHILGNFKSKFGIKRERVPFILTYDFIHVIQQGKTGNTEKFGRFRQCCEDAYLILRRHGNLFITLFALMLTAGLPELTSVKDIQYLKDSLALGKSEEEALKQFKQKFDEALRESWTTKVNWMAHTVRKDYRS
Description: as §1, §2

[1] = system: phosphorylation of Akt at Ser473 in PC-3 cells; experiment: Cellular assay: phospho-Akt (Ser473) MSD ELISA in PC-3 cells; type: cell-based; details: 60 min incubation with compound, read-out: IC50 pAkt_S473
Description: (§3) Cellular activity of PI3Kβ inhibitors was determined by quantifying the phosphorylation of Akt in PC-3 cells. Akt phosphorylated at Ser473 and Thr308 were measured using an enzyme-linked immunosorbent assay (ELISA; Meso Scale Discovery (MSD), Gaithersburg, Md.) and specific primary antibodies from MSD.
(§4) On day 1, PC3 cells (ATCC # […]) were seeded into PerkinElmer MW96 plates at 25.000 cells per well, in 75 μl complete culture medium (DMEM high glucose, AQmedia™, D0819, Sigma-Aldrich) containing 10% heat inactivated FCS and incubated at 37° C., 5% CO2 during 24 hours. On day 2, compound or DMSO (0.3%) was added and cells were further incubated for 60 min at 37° C., 5% CO2 in a total volume of 100 μl of medium.
(§5) The phosphoprotein assay was executed according to vendor instructions in the Phospho-Akt (Ser473) Assay Whole Cell Lysate Kit (MSD # K15100D-3) and the Phospho-Akt (Thr308) Assay Whole Cell Lysate Kit (MSD # K151DYD-3) using the lysis, blocking and wash buffer provided.
(§6) Briefly, at the end of the cell treatment period, media were removed by aspiration and adherent cells were lysed in 50 μl ice-cold lysis buffer. MSD plates are supplied pre-coated with capture antibodies for Phospho-Akt (Ser473 and Thr308). After blocking, lysates from tissue culture plates were added and plates were washed. Then, a solution containing the detection antibody (anti-total Akt conjugated with an electrochemiluminescent compound-MSD Sulfo-tag label) was added. The signals were detected using an MSD SECTOR Imager 6000 and are proportional to the phospho-Akt titres.
(§7) Data were processed. The percentage of inhibition was plotted against the log concentration of test compounds, and the sigmoidal log concentration-effect curve of best fit was calculated by nonlinear regression analysis. From these concentration-response curves, the IC50 values were calculated. Five concentrations were used for curve fitting.

[2] = system: phosphorylation of Akt at Thr308 in PC-3 cells; experiment: Cellular assay: phospho-Akt (Thr308) MSD ELISA in PC-3 cells; type: cell-based; details: 60 min incubation with compound, read-out: IC50 pAkt_Thr308
Description: as §3, §4, §5, §6, §7

PIK3Cα_h = molecular target: T3, PIK3Cα_h (Homo sapiens, UniProt P42336); experiment: Enzyme binding assay (KINOMEscan), PIK3Cα; details: DiscoveRx
T3 construct: purchased DiscoveRx Corporation
T3 sequence (P42336 whole entry): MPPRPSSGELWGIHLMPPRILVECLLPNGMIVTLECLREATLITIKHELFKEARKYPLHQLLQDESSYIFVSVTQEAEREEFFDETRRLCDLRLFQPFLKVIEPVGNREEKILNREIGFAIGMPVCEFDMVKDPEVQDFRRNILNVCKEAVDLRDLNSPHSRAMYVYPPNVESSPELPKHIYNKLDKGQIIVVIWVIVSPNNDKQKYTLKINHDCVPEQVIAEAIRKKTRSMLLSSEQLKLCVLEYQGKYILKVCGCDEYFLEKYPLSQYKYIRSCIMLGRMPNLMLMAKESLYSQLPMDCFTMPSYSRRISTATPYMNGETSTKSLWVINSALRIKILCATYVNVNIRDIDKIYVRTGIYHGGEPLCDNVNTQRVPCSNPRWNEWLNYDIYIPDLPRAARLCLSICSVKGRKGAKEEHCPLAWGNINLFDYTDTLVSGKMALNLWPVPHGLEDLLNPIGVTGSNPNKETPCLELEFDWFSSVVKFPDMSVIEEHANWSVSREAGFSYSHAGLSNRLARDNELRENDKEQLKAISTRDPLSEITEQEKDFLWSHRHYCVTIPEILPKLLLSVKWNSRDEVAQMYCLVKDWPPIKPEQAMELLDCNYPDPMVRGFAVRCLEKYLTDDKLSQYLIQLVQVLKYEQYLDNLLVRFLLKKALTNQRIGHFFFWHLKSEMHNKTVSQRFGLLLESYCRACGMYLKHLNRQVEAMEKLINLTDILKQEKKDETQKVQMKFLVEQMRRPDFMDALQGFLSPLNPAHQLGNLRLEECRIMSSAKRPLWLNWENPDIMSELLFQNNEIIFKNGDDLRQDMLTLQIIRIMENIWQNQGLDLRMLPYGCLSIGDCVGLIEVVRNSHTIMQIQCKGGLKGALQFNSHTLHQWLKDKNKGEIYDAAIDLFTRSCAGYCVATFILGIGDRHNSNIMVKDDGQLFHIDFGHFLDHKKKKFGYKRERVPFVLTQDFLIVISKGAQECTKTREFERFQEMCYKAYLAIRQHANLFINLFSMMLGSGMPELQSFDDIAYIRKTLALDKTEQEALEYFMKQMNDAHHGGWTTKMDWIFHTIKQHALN
Description: as §1, §2

MTOR_h = molecular target: T4, MTOR_h (Homo sapiens, UniProt P42345); experiment: Enzyme binding assay (KINOMEscan), MTOR; details: DiscoveRx
T4 construct: purchased DiscoveRx Corporation
Description: as §1, §2

PIK3Cδ_h = molecular target: T5, PIK3Cδ_h (Homo sapiens, UniProt O00329); experiment: Enzyme binding assay (KINOMEscan), PIK3Cδ; details: DiscoveRx
T5 construct: purchased DiscoveRx Corporation
T5 sequence (O00329 1-1044): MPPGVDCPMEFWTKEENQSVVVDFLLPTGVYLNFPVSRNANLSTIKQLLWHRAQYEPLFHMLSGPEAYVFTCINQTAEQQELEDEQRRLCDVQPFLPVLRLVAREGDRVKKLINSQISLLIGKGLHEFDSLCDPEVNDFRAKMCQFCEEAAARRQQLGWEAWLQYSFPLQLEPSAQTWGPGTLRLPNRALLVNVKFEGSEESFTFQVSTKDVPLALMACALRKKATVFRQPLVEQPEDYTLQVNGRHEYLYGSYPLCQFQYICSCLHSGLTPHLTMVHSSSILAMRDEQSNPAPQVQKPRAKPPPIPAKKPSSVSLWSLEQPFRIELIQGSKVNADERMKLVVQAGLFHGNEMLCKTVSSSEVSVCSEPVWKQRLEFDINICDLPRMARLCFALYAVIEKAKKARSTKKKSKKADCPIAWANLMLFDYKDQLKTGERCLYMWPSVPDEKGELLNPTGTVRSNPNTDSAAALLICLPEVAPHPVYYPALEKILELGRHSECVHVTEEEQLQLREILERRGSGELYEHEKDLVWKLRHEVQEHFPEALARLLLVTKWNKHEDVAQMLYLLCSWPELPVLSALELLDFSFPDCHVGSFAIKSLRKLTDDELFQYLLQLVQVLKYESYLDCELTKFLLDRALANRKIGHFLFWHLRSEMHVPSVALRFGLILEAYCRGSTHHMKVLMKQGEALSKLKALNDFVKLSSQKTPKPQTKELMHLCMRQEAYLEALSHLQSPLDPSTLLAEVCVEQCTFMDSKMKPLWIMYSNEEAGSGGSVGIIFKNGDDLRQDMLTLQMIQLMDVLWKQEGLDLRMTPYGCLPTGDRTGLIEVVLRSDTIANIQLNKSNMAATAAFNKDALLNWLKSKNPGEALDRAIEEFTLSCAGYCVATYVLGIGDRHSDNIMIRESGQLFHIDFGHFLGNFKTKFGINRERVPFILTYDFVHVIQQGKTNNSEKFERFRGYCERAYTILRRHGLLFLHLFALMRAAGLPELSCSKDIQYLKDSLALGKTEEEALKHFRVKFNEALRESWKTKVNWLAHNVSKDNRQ
Description: as §1, §2

T1 sequence (P48736 whole entry): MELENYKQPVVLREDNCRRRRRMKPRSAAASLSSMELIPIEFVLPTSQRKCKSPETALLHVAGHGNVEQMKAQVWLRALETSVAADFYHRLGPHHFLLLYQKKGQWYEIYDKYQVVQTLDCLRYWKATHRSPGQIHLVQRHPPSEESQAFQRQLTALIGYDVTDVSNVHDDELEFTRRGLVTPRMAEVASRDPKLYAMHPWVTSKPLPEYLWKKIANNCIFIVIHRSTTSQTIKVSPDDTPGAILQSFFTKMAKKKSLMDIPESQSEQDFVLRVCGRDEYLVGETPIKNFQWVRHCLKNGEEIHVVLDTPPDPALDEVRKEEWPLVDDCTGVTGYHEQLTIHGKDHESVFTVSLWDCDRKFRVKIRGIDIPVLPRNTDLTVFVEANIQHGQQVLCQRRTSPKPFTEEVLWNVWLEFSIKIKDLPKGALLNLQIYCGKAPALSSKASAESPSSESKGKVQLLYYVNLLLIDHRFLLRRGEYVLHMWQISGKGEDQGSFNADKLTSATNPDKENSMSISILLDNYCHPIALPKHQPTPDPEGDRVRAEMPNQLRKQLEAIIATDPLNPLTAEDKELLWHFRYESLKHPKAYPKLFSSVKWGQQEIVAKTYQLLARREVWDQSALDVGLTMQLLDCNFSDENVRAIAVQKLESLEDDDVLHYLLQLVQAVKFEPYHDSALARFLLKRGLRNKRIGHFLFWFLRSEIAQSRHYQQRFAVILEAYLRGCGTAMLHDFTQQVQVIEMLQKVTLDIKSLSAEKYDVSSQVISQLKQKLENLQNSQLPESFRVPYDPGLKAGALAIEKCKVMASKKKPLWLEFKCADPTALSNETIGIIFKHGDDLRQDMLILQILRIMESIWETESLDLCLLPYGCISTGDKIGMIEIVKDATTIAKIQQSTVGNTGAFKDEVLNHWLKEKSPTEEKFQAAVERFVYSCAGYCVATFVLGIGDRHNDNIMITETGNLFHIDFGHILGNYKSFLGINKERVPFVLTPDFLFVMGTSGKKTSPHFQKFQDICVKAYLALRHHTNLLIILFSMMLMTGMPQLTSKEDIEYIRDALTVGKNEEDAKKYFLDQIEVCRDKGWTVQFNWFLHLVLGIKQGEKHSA

SMILES | Kd (PIK3Cγ_h) [nM] | Kd (PIK3Cβ_h) [nM] | IC50 ([1]; Homo sapiens, PC-3, 1 h) [nM] | IC50 ([2]; Homo sapiens, PC-3, 1 h) [nM] | Kd (PIK3Cα_h) [nM] | Kd (MTOR_h) [nM] | melting point [°C] | Kd (PIK3Cδ_h) [nM] | IC50 [1] [nM] | IC50 [2] [nM]
Cc1cc(C)nc(N2CCCC2c2cc(C(=O)N(C)C)cc3ncc(N4CCOCC4)nc23)n1 (stereo not drawn) [Compound 5] | 26900 | 22 | > 513 | 417 | 5370 | > 30200 | 100 | 832 | – | –
COc1ncc(F)cc1NC(C)c1cc(C(=O)N(C)C)cc2ncc(N3CCOCC3)nc12 (stereo not drawn) [Compound 26] | > 30200 | 15 | > 513 | 191 | 5010 | > 30200 | 80 | 661 | – | –
CC(Nc1cncc(F)c1)c1cc(C(=O)NCCN(C)C)cc2ncc(N3CCOCC3)nc12 (single isomer, unassigned) [Compound 34] | 3890 | 0.4 | – | – | 2190 | > 30200 | 194 | 166 | 14 | 7
COc1ncc(NC(C)c2cc(C(=O)N(C)C)cc3ncc(N4CCOCC4)nc23)cc1C(F)(F)F (stereo not drawn) [Compound 24] | > 30200 | 589 | > 513 | > 513 | > 30200 | > 30200 | 80 | 8320 | – | –
CN(C)CCNC(=O)c1cc(C2CCCN2c2cncc(F)c2)c2nc(N3CCOCC3)cnc2c1 (stereo not drawn) [Compound 36] | 3390 | 0.1 | 5 | 4 | 1700 | > 30200 | 206 | 295 | – | –
O=C(c1cc(C2CCCN2c2cncc(F)c2)c2nc(N3CCOCC3)cnc2c1)N1CC2(C1)CS(=O)(=O)C2 (stereo not drawn) [Compound 44] | 4070 | 2 | 49 | 30 | 575 | 31600 | 130 | 240 | – | –
CC(Nc1cncc(F)c1)c1cc(C(=O)N2CC3(C2)CS(=O)(=O)C3)cc2ncc(N3CCOCC3)nc12 (single isomer, unassigned) [Compound 32] | > 30200 | 5490 | – | – | > 30200 | > 30200 | 180 | 22400 | > 513 | > 513
CC(Nc1cncc(Cl)n1)c1cc(C(=O)N(C)C)cc2ncc(N3CCOCC3)nc12 (stereo not drawn) [Compound 25] | 28800 | 21 | > 513 | 468 | 16200 | > 30200 | 225 | 1320 | – | –
Cc1nccc(N2CCCC2c2cc(C(=O)N(C)C)cc3ncc(N4CCOCC4)nc23)n1 (stereo not drawn) [Compound 4] | > 30200 | 1550 | > 513 | > 513 | 28800 | > 30200 | 110 | 22400 | – | –
